In ChEMBL document CHEMBL1201862, “PubChem BioAssay data set” (2004):
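Cells were grown in 96-well plates and exposed to each compound for 48 hours at five concentrations; endpoints were interpolated linearly between bracketing concentrations, or set to the highest concentration if not reached. At the GI50, growth is halved.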 The source made the active and inactive calls. Cut-off read from the data, not from the text of the source: active = GI50 up to about 1.1 µM and inactive = higher.

How the values were obtained:
Test in all cases: DTP human tumour cell line panel, 48 h
A549 = test system: A549
BT-549 = test system: BT-549
COLO 205 = test system: COLO 205
HCT-116 = test system: HCT-116
HL-60 = test system: HL-60
HOP-62 = test system: HOP-62
IGROV-1 = test system: IGROV-1
KM-20L2 = test system: KM-20L2
KM12 = test system: KM12
LOX IMVI = test system: LOX IMVI
M19-MEL = test system: M19-MEL
Malme-3M = test system: Malme-3M
NCI-H226 = test system: NCI-H226
NCI-H23 = test system: NCI-H23
NCI-H460 = test system: NCI-H460
NCI/ADR-RES = test system: NCI/ADR-RES
OVCAR-3 = test system: OVCAR-3
RPMI-8226 = test system: RPMI-8226
SK-MEL-5 = test system: SK-MEL-5
SNB-19 = test system: SNB-19

Measured: GI50

COc1cc(/C=C/c2ccc(C)cc2)cc(OC)c1OC
inactive: A549 4.27 µM | BT-549 5.68 µM | COLO 205 3.16 µM | HCT-116 3.3 µM | HL-60 2.97 µM | HOP-62 4.18 µM | IGROV-1 5.11 µM | KM-20L2 2.09 µM | KM12 3.66 µM | LOX IMVI 6.14 µM | M19-MEL 9.98 µM | Malme-3M 4.35 µM | NCI-H226 4.29 µM | NCI-H23 2.9 µM | NCI-H460 3.85 µM | NCI/ADR-RES 2.07 µM | OVCAR-3 2.48 µM | RPMI-8226 3.8 µM | SK-MEL-5 3.85 µM | SNB-19 4.21 µM

C/C(=N\NC(=N)N)C(CN(C)C)C(c1ccccc1)c1c(O)c2ccccc2oc1=O (stereo unspecified)
inactive: A549 > 100 µM | BT-549 72.9 µM | COLO 205 > 100 µM | HCT-116 > 100 µM | HL-60 > 100 µM | HOP-62 > 26.6 µM | IGROV-1 > 100 µM | KM-20L2 > 100 µM | KM12 > 100 µM | LOX IMVI > 100 µM | M19-MEL > 100 µM | Malme-3M > 100 µM | NCI-H226 > 100 µM | NCI-H23 > 100 µM | NCI-H460 > 100 µM | NCI/ADR-RES > 100 µM | OVCAR-3 > 100 µM | RPMI-8226 > 100 µM | SK-MEL-5 > 100 µM | SNB-19 > 100 µM

CCOC(=O)Nn1c(C)cc(C(=O)OC)c1C
inactive: A549 > 100 µM | COLO 205 > 100 µM | HCT-116 > 100 µM | HL-60 > 100 µM | HOP-62 > 100 µM | IGROV-1 > 100 µM | KM-20L2 > 100 µM | KM12 > 100 µM | LOX IMVI > 100 µM | M19-MEL > 100 µM | Malme-3M > 100 µM | NCI-H226 > 100 µM | NCI-H23 > 100 µM | NCI-H460 > 100 µM | OVCAR-3 > 100 µM | RPMI-8226 > 100 µM | SK-MEL-5 > 100 µM | SNB-19 > 100 µM

COC(=O)c1onc(-c2c(OC)cc(OC)cc2OC)c1C(=O)OC
inactive: A549 > 100 µM | COLO 205 > 100 µM | HCT-116 > 100 µM | HL-60 > 100 µM | HOP-62 > 100 µM | IGROV-1 > 100 µM | KM-20L2 > 100 µM | KM12 > 100 µM | LOX IMVI > 100 µM | M19-MEL > 100 µM | Malme-3M > 100 µM | NCI-H226 > 100 µM | NCI-H23 > 100 µM | NCI-H460 > 100 µM | OVCAR-3 > 100 µM | RPMI-8226 > 100 µM | SK-MEL-5 > 100 µM | SNB-19 > 100 µM
